The values that follow are results of earlier work, collected in patent US20160361342A1, “USE OF ALGINATE OLIGOMERS IN THE TREATMENT OF CYSTIC FIBROSIS AND OTHER CONDITIONS ASSOCIATED WITH DEFECTIVE CFTR ION CHANNEL FUNCTION” (ALGIPHARAMA AS, priority 2014, published 2016).

This data set has as its system ileum explants from mutant mice. The note with it: apical medium supplemented with sodium bicarbonate at levels predicted to be reached by wild type CFTR.

On to `O=C([O-])O.[Na+]` [sodium bicarbonate], for which the attached mucus phenotype result was “can be reversed”.
